pIC50: −log10 of the molar value. No end group written: not given here.
Columns and labels:
[1] = molecular target: HLA-DRA1*0101, DRB1*0401 (DR4) (Homo sapiens, UniProt P01903+P01911, A100K/A169T/F76Y/I96L/K127E/L162R/M171V/N62H/P40V/Q125Y/R42H/S133A/S149N/S66Y/V115G/V209L/W38E); assay: DR4
Procedure: (§1) Table printed on a drawing sheet, Figure 9
(§2) The patent's description of the figure: FIG. 9: Diverse patterns of in vitro peptide-MHC II binding for peptides 9K1, 17JK and 15N3K. Binding of peptides 9K1, 17JK and 15N3K to recombinant HLA-DRA1*0101, DRB1*0101 (DR1), DRB1*1501 (DR2), DRB1*0301 (DR3), DRB1*0401 (DR4), DRB1*1101 (DR11), DRB1*0405 (DR4*05) and DRB1*0901 (DR9) was assessed in vitro. IC50 values (µM) are presented and colour-coded per HLA-DR molecule. Low values (green) indicate strong binding, high values (red) indicate low(er) binding.
(§3) FIG. 9 depicts IC50 (µM) values of peptides 9K1K, 17JK and 15N3K binding to the indicated HLA-DR molecules and competing with a known competitor peptide. Values should be compared only within each HLA-DR molecule. Low IC50 values (green) indicate the strongest binder per HLA-DR molecule. Highest values per HLA-DR molecule (red) are indicative of the lowest binder for that HLA-DR molecule. Intermediate values are indicated in orange. […]
(§4) First copying reader's note: The sheet prints no unit; per the patent description the values are IC50 (µM) for peptide binding to the named HLA-DR molecules, with cell shading coding relative binding strength per HLA-DR molecule.
Where the first naming reader finds the target: description_of_the_figure: recombinant HLA-DRA1*0101, DRB1*0101 (DR1), DRB1*1501 (DR2), DRB1*0301 (DR3), DRB1*0401 (DR4)

[2] = molecular target: HLA-DRA1*0101, DRB1*0901 (DR9) (Homo sapiens, UniProt P01903+P01911, A100R/A103E/D57H/D86V/F55Y/F60I/F76Y/I96F/K127E/L162R/M171V/P40D/Q125H/Q99R/R33Q/R42F/S133A/S66N/T210M/V115G/W38K/Y107V/Y59G/Y89S); assay: DR9
Procedure: as §1, §2
(§5) FIG. 9 depicts IC50 (µM) values of peptides 9K1K, 17JK and 15N3K binding to the indicated HLA-DR molecules and competing with a known competitor peptide. Values should be compared only within each HLA-DR molecule. Low IC50 values (green) indicate the strongest binder per HLA-DR molecule. Highest values per HLA-DR molecule (red) are indicative of the lowest binder for that HLA-DR molecule. Intermediate values are indicated in orange. […] So, combining the peptides into a cocktail treatment, makes the treatment less restricted to a certain HLA-DR type.
as §4

[3] = test system: SAg-specific hybridoma cells with fresh or fixed APC (VAVY) cells, MHCII; assay: Antigen processing independent presentation system (APIPS) assay; assay type: cell-based, DR3tg mice; conditions: 10 or 25 µg/ml peptide, IL-2 ELISA after 48 h
Procedure: FIG. 10: Variants of peptide 15N3K are apitopes. The ability of variants of the 15N3K peptide to behave as apitopes (i.e. bind to an MHCII molecule and be presented to a T cell by an antigen-presenting cell without undergoing antigen processing) was tested using an APIPS assay. DR3tg mice were immunised with SAg and hybridoma’s were generated. 5*10^4 SAg-specific hybridoma cells were cultured with 5*10^4 fresh or fixed commercial APC (VAVY) cells. Cultures were stimulated with 10 or 25 µg/ml of peptide, as indicated in the graph. T cell activation was measured by IL-2 ELISA on supernatants collected after 48 h. The graph represents the mean of duplicate measurements ± SEM.
Apitopes (Antigen Processing-Independent epiTOPES) are capable of binding to an MHCII molecule and stimulating a response from SAg-specific T cells without further antigen processing. Variants of peptide 15N3K (SEQ ID NO: 3) were tested for their ability to bind to an MHCII molecule and be presented to a T cell hybridoma without further antigen processing in an in vitro antigen processing independent presentation system (APIPS) assay. In other words, peptides consisting of parts of peptide 15N3K and peptides with various degrees of sequence identity with peptide 15N3K were tested for their ability to behave as apitopes.
All but three of the peptides are apitopes.
Antigen-specific hybridoma clones were tested for their reactivity to the peptides, presented by fixed or not fixed (fresh) cells (APCs). 5x10^4 cells were cultured with 10 µg/ml and 25 µg/ml peptide and 5x10^4 fixed or fresh APCs. To fix APCs, cells were incubated with 0.5% paraformaldehyde (Merck, Darmstadt, Germany) (pH7) for 5 min at room temperature (RT). The fixation reaction was stopped by adding 0.4 M glycine (Sigma-Aldrich) and washing the cells in RPMI-10% FCS. After 48 h, antigen-induced IL-2 production was measured by ELISA (R&D Systems, Abingdon, UK).

[4] = molecular target: HLA-DRA1*0101, DRB1*0405 (DR4*05) (Homo sapiens, UniProt P01903+P01911, A100R/A169T/D86S/F76Y/I96L/K127E/L162R/M171V/N62H/P40V/Q125Y/R42H/S133A/S149N/S66Y/V115G/V209L/W38E); assay: DR4*05
Procedure: as §1
Head of the field: DR4*05
as §2, §5, §4

[5] = molecular target: HLA-DRA1*0101, DRB1*0101 (DR1) (Homo sapiens, UniProt P01903+P01911, A100R/D57E/F55L/F60I/F76Y/I96L/L162R/M171V/P40L/Q125E/R42F/V115G/Y59C); assay: DR1
Procedure: as §1, §2, §3, §4
Where the first naming reader finds the target: description_of_the_figure: recombinant HLA-DRA1*0101, DRB1*0101 (DR1)

Row | Substance | pIC50 [1] | pIC50 [2] | Apitope [3] | pIC50 [4] | pIC50 [5]
1 | KKKVIFKKISRDKSVTIYLGKKK-NH2 [15N3K] | 6.08 | 4.73 | Yes |  | 
2 | KKKLTFRRDLYFSRVQVYKKK-NH2 [17JK] |  |  |  | 4.76 | 5.67

Source: US20230203126A1, “A COMPOSITION COMPRISING S-ARRESTIN PEPTIDES” (WORG PHARMACEUTICALS (HANGZHOU) CO., LTD., priority 2019, published 2023)
